This note sets out measurements from patent EP0241395A2, “Sweeteners derived from n-phenylguanidinoacetic and n-phenylethananamidinacetic acids, and compositions containing such sweeteners” (UNIVERSITE CLAUDE BERNARD - LYON 1, priority 1986, dated 1987).

In the assay the test system is groupe de huit goûteurs expérimentés. In words: Sweetening power judged by a panel of eight experienced tasters against a sucrose reference solution. The class given is in vivo. The following applies: weight basis; for Pouvoir édulcorant: Table II, relative to a 2 % sucrose solution; for pouvoir édulcorant, sur une base pondérale: by comparison with a 2 % sucrose solution, approximate. Put shortly: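 Panel of eight experienced tasters compared aqueous solutions of compound at varying concentrations with a sucrose reference at 2 %, sometimes 5 % and 10 %. Sweetening power is the weight ratio of sucrose to compound at equal sweetness intensity, as judged by a majority of tasters, and depends on the reference concentration.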

Regarding `CN(C(=Nc1ccc(C#N)cc1)NCC(=O)O)c1ccccc1` [Exemple 74, acide N-[N-(N-méthyl-N-phénylamino) (4-cyanophénylimino)méthyl]-2-aminoéthanoïque], the Pouvoir édulcorant was determined as 18000 and the “pouvoir édulcorant, sur une base pondérale” value is reported as ~18 000 fois celui du saccharose.
For `N#Cc1ccc(N=C(NCC(=O)O)Nc2ccc3c(c2)OCO3)cc1` [Exemple 75, acide N-[N-(3,4-méthylènedioxyphényl)amino(4-cyanophénylimino)méthyl]-2-aminoéthanoïque] the same measures were 5000 and ~5 000 fois celui du saccharose.
For `O=C(O)CNC(=Nc1cc(Cl)cc(Cl)c1)NN1CCOCC1` [Exemple 76, acide N-[N-morpholinoamino (3,5-dichlorophénylimino)méthyl]-2-aminoéthanoïque] the same measures were 500 and approximately 500 fois celui du saccharose.
For `N#Cc1ccc(N=C(NCC(=O)O)NN2CCOCC2)cc1` [Exemple 77, acide N-[N-morpholinoamino(4-cyano-phénylimino)méthyl]-2-aminoéthanoïque] the same measures were 950 and approximately 950 fois celui du saccharose.
Regarding `CC1(C)SC(C)(C)C1NC(=Nc1ccc(C#N)cc1)NCC(=O)O` [Exemple 78, acide N-[N-(2,2,4,4-tétraméthylthiacyclobut-3-yl)amino(4-cyanophénylimino)méthyl]-2-amino-éthanoïque], the “Pouvoir édulcorant” value is reported as 700 and the “pouvoir édulcorant, sur une base pondérale” value was approximately 700 fois celui du saccharose.
For `O=C(O)CNC(=NS(=O)(=O)c1ccccc1)Nc1cccc(Cl)c1` [Exemple 79, acide N-[phénylsulfonylimino (3-chlorophénylamino)méthyl]-2-aminoéthanoique] the same measures were 17000 and ~17 000 fois celui du saccharose.
The molecule `N#Cc1ccc(N=C(NCC(=O)O)Nc2cccc(Cl)c2)cc1` [Exemple 80, acide N-[N-(3-chlorophényl)amino(4-cyanophénylimino)méthyl]-2-aminoéthanoïque] displayed a Pouvoir édulcorant of 10000.
For `O=C(O)CNC(=Nc1cc(Cl)cc(Cl)c1)Nc1cc(Cl)cc(Cl)c1` [Exemple 81, acide N-[N-3,5-dichlorophénylamino (3,5-dichlorophénylimino)méthyl]-2-aminoéthanoïque], the Pouvoir édulcorant turned out to be 1000 and the “pouvoir édulcorant, sur une base pondérale” value was ~1 000 fois celui du saccharose.
For `N#Cc1ccc(N=C(NCC(=O)O)N2CCCC2)cc1` [Exemple 82, acide N-[N,N-(tétraméthylène)amino (4-cyanophénylimino)méthyl]-2-aminoéthanoïque], in that order: 100 and approximately 100 fois celui du saccharose.
For `N#Cc1ccc(N=C(NCC(=O)O)N2CCCCC2)cc1` [Exemple 83, acide N-[N,N-(pentaméthylène)amino (4-cyanophénylimino)méthyl]-2-aminoéthanoïque] the same measures were 200 and approximately 200 fois celui du saccharose.
On to `CN(C(=NCc1ccccc1)NCC(=O)O)c1ccccc1` [Exemple 84, acide N-[benzylimino(N-méthyl-N-phénylamino)méthyl]-2-aminoéthanoïque], for which the “Pouvoir édulcorant” value amounted to 200 and the “pouvoir édulcorant, sur une base pondérale” value was approximately 200 fois celui du saccharose.
Take `C[C@@H](NC(=Nc1ccc(C#N)cc1)NC1CCCCC1)C(=O)O` [Exemple 85, acide (R)-N-[N-cyclohexylamino (4-cyanophénylimino)méthyl]-2-aminopropanoïque]: the “Pouvoir édulcorant” value worked out at 100 and the “pouvoir édulcorant, sur une base pondérale” value is approximately 100 fois celui du saccharose.
